The source of these data is patent publication US20230086702A1, “SUBSTITUTED 2-AMINO-PYRAZOLYL-[1,2,4]TRIAZOLO[1,5A]PYRIDINE DERIVATIVES AND USE THEREOF” (The Johns Hopkins University, priority 2019, published 2023).

Assay [1] concerns the target T1, DLK (Homo sapiens, UniProt Q12852).
T1 construct: 10 nM DLK, catalytic domain, Carna Biosiences; purchased Carna Biosciences ('Carna Biosiences' [sic])
T1 sequence (Q12852 125-366 limits assumed): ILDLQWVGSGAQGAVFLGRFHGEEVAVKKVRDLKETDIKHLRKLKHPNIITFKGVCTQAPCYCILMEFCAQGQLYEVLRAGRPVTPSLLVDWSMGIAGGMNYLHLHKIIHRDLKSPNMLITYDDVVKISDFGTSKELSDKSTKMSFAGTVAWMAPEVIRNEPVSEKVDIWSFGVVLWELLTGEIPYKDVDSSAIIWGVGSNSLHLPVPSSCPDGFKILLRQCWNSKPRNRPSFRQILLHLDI
Kind of assay: DLK biochemical assay (TR-FRET, MKK7 phosphorylation). Particulars: DLK catalytic domain, MKK7 substrate, 60 μM ATP. The procedure: (§1) DLK assay is a biochemical assay format designed to screen for inhibitors of DLK. Enzymatic activity of DLK is measured by monitoring phosphorylation of the physiological substrate MKK7 (MAP2K7, Dual specificity mitogen-activated protein kinase kinase 7). Phosphorylation is detected by a TR-FRET system whereby His-tagged MKK7 is labeled by a XL665-labeled anti-His antibody (FRET acceptor, emission 665 nm). DLK phosphorylates MKK7 at T275/S277, which is detected by an Eu-labeled anti-phospho-MKK7 (T275/S277) antibody (FRET donor, excitation 340 nm). Phosphorylation of MKK7 results in an increased TR-FRET signal (Ratio XL665-channel/Eu-channel) and inhibition of enzymatic activity of DLK decreases the TR-FRET signal.
All indicated concentrations are final concentrations.
(§2) Detection buffer: 25 mM Tris/HCl pH 7.5, 100 mM EDTA, 100 mM NaCl, 200 mM KF, 0.01% Tween 20, 1:500 Smart Block.
On the technique in general: Time-resolved FRET reads energy transfer from a long-lived donor to a nearby acceptor.

Assay [2] has as its target T2, LZK (Homo sapiens, UniProt O43283).
T2 construct: 10 nM LZK, catalytic domain, Carna Biosiences in assay buffer; purchased Carna Biosciences ('Carna Biosiences' [sic])
T2 sequence (O43283 168-409 limits assumed): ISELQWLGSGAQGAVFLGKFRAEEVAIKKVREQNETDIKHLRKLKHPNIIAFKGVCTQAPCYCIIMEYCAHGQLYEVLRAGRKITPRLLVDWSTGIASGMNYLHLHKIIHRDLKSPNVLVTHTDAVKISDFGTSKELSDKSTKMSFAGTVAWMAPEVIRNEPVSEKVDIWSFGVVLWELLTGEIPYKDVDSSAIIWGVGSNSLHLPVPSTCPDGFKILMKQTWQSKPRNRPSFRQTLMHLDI
Briefly: LZK biochemical assay (TR-FRET, MKK7 phosphorylation). Particulars: LZK catalytic domain, MKK7 substrate, 15 μM ATP. As for the experimental part:
as §1, with “LZK” for “DLK”, “LZK.” for “DLK.”, “T275/S277” for “T275/S277,”
All indicated concentrations final concentrations.
as §2

In assay [3] the target is T1, DLK. Kind of assay: DLK biochemical assay (TR-FRET, MKK7 phosphorylation). The method, boiled down: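 DLK catalytic domain (10 nM) phosphorylates His-MKK7 (15 nM) at 60 μM ATP for 90 min at RT in pH 7.5 Hepes buffer (final concentrations). Phospho-T275/S277 is detected by TR-FRET (Eu anti-phospho donor, XL665 anti-His acceptor) after 16 h at 37° C (1536 format) or 4° C (384 format).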

The target in assay [4] is T2, LZK. Kind of assay: LZK biochemical assay (TR-FRET, MKK7 phosphorylation). In outline:
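LZK catalytic domain (10 nM) phosphorylates His-MKK7 (15 nM) with 15 µM ATP, all final, for 90 min at RT in HEPES buffer pH 7.5 with MgCl2. Phospho-T275/S277 detected by TR-FRET (Eu anti-phospho donor, XL665 anti-His acceptor) after 16 h at 32 °C in EDTA stop buffer. Inhibition lowers the 665/Eu ratio.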

As usually defined, the pIC50 is −log10 of the IC50, conventionally taken in molar units.

Each structure is given as a SMILES string. pIC50: −log10 of the molar value. Where two headings read alike, the source gives them in different places.

As for `CC[C@H](C)NC(=O)c1cc(-c2cnn(C(c3ccccc3)C3CC(F)(F)C3)c2)cn2nc(N)nc12` (mixture of isomers) [Example I-31, 2-Amino-N-[(2S)-butan-2-yl]-6-{1-[(3,3-difluorocyclobutyl)(phenyl)methyl]-1H-pyrazol-4-yl}[1,2,4]triazolo[1,5-a]pyridine-8-carboxamide], the pIC50 on DLK [1] is 8.42; at LZK [2], 6.82.

Consider `CCC(c1ccc(OCC(F)(F)F)nc1)n1cc(-c2cc(C(=O)N[C@@H](C)CC)n3nc(N)nc3c2)cn1` (mixture of isomers) [Example I-113, 2-Amino-N-[(2S)-butan-2-yl]-7-(1-{1-[6-(2,2,2-trifluoroethoxy)pyridin-3-yl]propyl}-1H-pyrazol-4-yl)[1,2,4]triazolo[1,5-a]pyridine-5-carboxamide], for which the pIC50 against DLK [1] is 8.27; against LZK [2] it was 7.92.

For the compound `CC[C@@H](NC(=O)c1cc(-c2cnn(Cc3ccccc3)c2)cn2nc(N)nc12)C(F)(F)F` (single isomer, unassigned) [Example I-134], the pIC50 on DLK [1] was 6.64; on LZK [2], 6.01.

With `CC[C@H](C)NC(=O)c1cc(-c2cnn(C(c3c(F)cncc3F)C(C)C)c2)cc2nc(N)nn12` (single isomer, unassigned) [Example I-125], the pIC50 at DLK [1] is 8.27; against LZK [2], 7.18.

`CC[C@H](C)NC(=O)c1cc(-c2cnn(C3CCOc4ccccc43)c2)cc2nc(N)nn12` (single isomer, unassigned) [Example I-18]: the pIC50 against DLK [1] is 7.33; on LZK [2], 8.22.

In the case of `CC[C@H](C)NC(=O)c1cc(-c2cnn(CC3CC3)c2)cn2nc(N)nc12` [Example I-1], the figures for the negative logarithm of the IC50 (pIC50) against DLK [1] and against LZK [2] were 7.01 and 7.08, respectively.

As for `CCC(c1ccnc(C(F)(F)F)c1)n1cc(-c2cc(C(=O)N[C@@H](C)CC)n3nc(N)nc3c2)cn1` (mixture of isomers) [Example I-122, 2-Amino-N-[(2S)-butan-2-yl]-7-(1-{1-[2-(trifluoromethyl)pyridin-4-yl]propyl}-1H-pyrazol-4-yl)[1,2,4]triazolo[1,5-a]pyridine-5-carboxamide], the values for the pIC50 on DLK [1] and against LZK [2] were 8.46 and 8.13, respectively.

Turning to `CC[C@H](C)NC(=O)c1cc(-c2cnn(C(c3ccc(C(F)(F)F)nc3)C3CCNCC3)c2)cn2nc(N)nc12` (single isomer, unassigned) [Example I-82], the pIC50 on DLK [1] was 9.05; on LZK [2], 9.30.

With `CC[C@H](C)NC(=O)c1cc(-c2cnn(C(c3ccccc3)C(C)(C)C)c2)cn2nc(N)nc12` (single isomer, unassigned) [Example I-35], the pIC50 at DLK [1] is 6.39; against LZK [2] it was 6.00.

`CC[C@H](C)NC(=O)c1cc(-c2cnn(C3CCCc4ncccc43)c2)cc2nc(N)nn12` (mixture of isomers) [Example I-19, 2-Amino-N-[(2S)-butan-2-yl]-7-[1-(5,6,7,8-tetrahydroquinolin-5-yl)-1H-pyrazol-4-yl][1,2,4]triazolo[1,5-a]pyridine-5-carboxamide]: the pIC50 is 7.68 on DLK [1] and 8.41 at LZK [2].

With `CC[C@H](C)NC(=O)c1cc(-c2cnn(C(c3ccc(C(F)(F)F)nc3)C3CCOCC3)c2)cn2nc(N)nc12` (single isomer, unassigned) [Example I-77], the values for the pIC50 against DLK [1] and at LZK [2] were 8.23 and 8.16, respectively.

On to `CCC(c1ccc(C(F)F)nc1)n1cc(-c2cc(C(=O)N[C@@H](C)CC)c3nc(N)nn3c2)cn1` (single isomer, unassigned) [Example I-65], for which the pIC50 is 7.60 against DLK [1] and 7.48 at LZK [2].

Take `CC[C@H](C)NC(=O)c1cc(-c2cnn(Cc3ccc(C(F)(F)F)cc3)c2)cn2nc(N)nc12` (single isomer, unassigned) [Example I-46]: the pIC50 is 7.60 at DLK [1] and 7.40 against LZK [2].

For `CC[C@H](C)NC(=O)c1cc(-c2cnn(C(c3ccccc3)C3CCC3)c2)cn2nc(N)nc12` (mixture of isomers) [Example I-27, 2-Amino-N-[(2S)-butan-2-yl]-6-{1-[cyclobutyl(phenyl)methyl]-1H-pyrazol-4-yl}[1,2,4]triazolo[1,5-a]pyridine-8-carboxamide], the pIC50 against DLK [1] is 8.11; at LZK [2], 6.41.

With `CC[C@H](C)NC(=O)c1cc(-c2cnn(C(c3ccc(OCC(F)(F)F)nc3)C3CC3)c2)cc2nc(N)nn12` (single isomer, unassigned) [Example I-121], the results for the pIC50 against DLK [1] and against LZK [2] were 8.72 and 7.52, respectively.

Turning to `CCC(c1ccc(C(F)F)nc1)n1cc(-c2cc(C(=O)N[C@@H](C)CC)c3nc(N)nn3c2)cn1` (single isomer, unassigned) [Example I-66], the values for the pIC50 against DLK [1] and on LZK [2] were 9.10 and 8.39, respectively.

`CCC(c1ccc(OC(F)(F)F)nc1)n1cc(-c2cc(C(=O)NC(C)(C)CO)c3nc(N)nn3c2)cn1` (racemic) [Example I-169, 2-Amino-N-(1-hydroxy-2-methylpropan-2-yl)-6-(1-{1-[6-(trifluoromethoxy)pyridin-3-yl]propyl}-1H-pyrazol-4-yl)[1,2,4]triazolo[1,5-a]pyridine-8-carboxamide]: the pIC50 against DLK [1] is 7.59; at LZK [2], 7.15.

With `CC[C@H](C)NC(=O)c1cc(-c2cnn(C(c3ccc(F)cc3)C(C)C)c2)cn2nc(N)nc12` (single isomer, unassigned) [Example I-44], the values for the pIC50 against DLK [1] and against LZK [2] were 7.48 and 6.80, respectively.

In the case of `CC[C@H](C)NC(=O)c1cc(-c2cnn(C3CCc4ccccc43)c2)cn2nc(N)nc12` (mixture of isomers) [Example I-13, 2-Amino-N-[(2S)-butan-2-yl]-6-[1-(2,3-dihydro-1H-inden-1-yl)-1H-pyrazol-4-yl][1,2,4]triazolo[1,5-a]pyridine-8-carboxamide], the values for the pIC50 against DLK [1] and against LZK [2] were 7.17 and 8.11, respectively.

As to `CCC(c1ccc(C(F)F)nc1)n1cc(-c2cc(-c3ccc(C4CC4)nc3)n3nc(N)nc3c2)cn1` (single isomer, unassigned) [II-68, 5-(6-Cyclopropylpyridin-3-yl)-7-(1-{1-[6-(difluoromethyl)pyridin-3-yl]propyl}-1H-pyrazol-4-yl)[1,2,4]triazolo[1,5-a]pyridin-2-amine], the pIC50 at DLK [3] is 7.44; against LZK [4] it was 7.07.

Consider `Nc1nc2c(-c3ccc(=O)n(CC(F)(F)F)c3)cc(-c3cnn(C(c4ccc(C(F)(F)F)nc4)C4CCOCC4)c3)cn2n1` (stereo not shown) [II-160], for which the pIC50 against DLK [3] is 8.82; at LZK [4], 8.23.

Consider `N#CCC(n1cc(-c2cc(-c3cnn(Cc4ccccc4)c3)cc3nc(N)nn23)cn1)C(F)(F)F` (stereo not shown) [II-123], for which the pIC50 against DLK [3] is 7.28; at LZK [4] it was 6.82.

Regarding `Nc1nc2cc(-c3cnn(C(c4ccc(C(F)(F)F)nc4)C4CCOCC4)c3)cc(-c3cn(CC(F)(F)F)c(=O)cn3)n2n1` (single isomer, unassigned) [II-195, 5-[2-Amino-7-(1-{tetrahydro-2H-pyran-4-yl[6-(trifluoromethyl)pyridin-3-yl]methyl}-1H-pyrazol-4-yl)[1,2,4]triazolo[1,5-a]pyridin-5-yl]-1-(2,2,2-trifluoroethyl)pyrazin-2(1H)-one], the pIC50 is 8.96 at DLK [3] and 8.28 against LZK [4].
